This passage reports IC50 results from patent publication US20060079453A1, “Hla binding peptides and their uses” (priority 2002, published 2006).

No end group written: not given here.

As a reminder, the IC50 is the point on the concentration scale where inhibition reaches its midpoint. Higher therefore signals lower potency.

Common to all, as to assay: biochemical
One assay concerns the target HLA-B*4402 (Homo sapiens, UniProt P01889, A223V/A65T/A93T/A95T/D201E/D98Y/E176V/E187L/E204Q/E69K/G107R/H137Y/K202T/L105A/L119I/N104T/N87E/Q56L/Q94N/R106L/R155S/R180D/S101N/S121R/S35A/S48T/T118I/V36M/W191S/Y140D/Y91S). In kind it is binding. Conditions: B*4402.
For another assay, the target named is HLA-B*4403 (Homo sapiens, UniProt P01889, A223V/A65T/A93T/A95T/D201E/D98Y/E176V/E187L/E204Q/E69K/G107R/H137Y/K202T/L105A/L119I/N104T/N87E/Q56L/Q94N/R106L/R155S/R180L/S101N/S121R/S35A/S48T/T118I/V36M/W191S/Y140D/Y91S). In kind it is binding. Conditions: B*4403.
The next assay concerns the target HLA-B*4001 (Homo sapiens, UniProt P01889, A65T/A93T/A95T/D138N/D98Y/E176V/E69K/N87E/Q56L/Q94N/R180L/S121R/S35A/S48T/T167S/V36M/W171L/Y33H/Y91S). In kind it is binding. Conditions: B*4001.
The next assay deals with H-2Kk (Mus musculus, UniProt P04223). The format is binding, murine.
H-2Kk, sequence (P04223 22-369): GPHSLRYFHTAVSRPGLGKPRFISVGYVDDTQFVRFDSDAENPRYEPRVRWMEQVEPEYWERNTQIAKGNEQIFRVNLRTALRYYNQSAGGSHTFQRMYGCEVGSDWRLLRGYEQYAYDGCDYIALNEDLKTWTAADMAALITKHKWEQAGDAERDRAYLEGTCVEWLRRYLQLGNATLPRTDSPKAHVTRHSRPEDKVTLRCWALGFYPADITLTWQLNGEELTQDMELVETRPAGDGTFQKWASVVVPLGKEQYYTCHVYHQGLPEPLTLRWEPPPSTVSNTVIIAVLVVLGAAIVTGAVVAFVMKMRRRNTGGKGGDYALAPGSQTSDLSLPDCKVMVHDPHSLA
H-2Kk, sequence (P61769 21-119, further chain): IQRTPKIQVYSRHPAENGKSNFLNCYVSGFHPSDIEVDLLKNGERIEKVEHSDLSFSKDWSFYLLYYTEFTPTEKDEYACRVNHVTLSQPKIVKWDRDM
The target of another assay is HLA-B*1801 (Homo sapiens, UniProt P01889, A329T/A93T/A95T/C349S/D201E/D54G/D98Y/E176V/E187T/E204Q/E69T/K202T/Q94N/R155S/R180L/S121R/V306I/Y140S/Y195H/Y33H/Y91S). The format is binding. Conditions: B*1801.
Assay [1] has as its target HLA-DQ DQA1*0301/B*0302 (DQ8) (Homo sapiens, UniProt P01909+P01920, A209T/A45G/C70Q/D89A/DUP78-78/E183D/E77G/F237L/G63E/H199R/I129T/K197E/L178F/L74F/L98V/Q57E/Q76R/S185I/S97I/T217I/T49S/V73L/Y58L).
Assay [2] addresses HLA-DQ DQA1*0501/B*0201 (DQ2) (Homo sapiens, UniProt P01909+P01920, A45G/A70V/D89A/E106A/E77G/E98D/H199R/L107V/N214S/P84L/P87L/T103K/T109R/T172A/T60S/V78E/V99I/Y58L/Y62S/Y69I/Y79F).
In assay [3] the target is HLA-DQ DQA1*0301/B*0301 (DQ7) (Homo sapiens, UniProt P01909+P01920, A209T/C70Q/DUP78-78/E183D/F237L/G63E/I129T/K197E/L178F/L74F/L98V/Q57E/Q76R/S185I/S97I/T49S/V73L). The format is binding.
The next assay addresses HLA-DR DRB1*0901 (DR9) (Homo sapiens, UniProt P01903+P01911, A100R/A103E/D57H/D86V/F55Y/F60I/F76Y/I96F/K127E/L162R/M171V/P40D/Q125H/Q99R/R33Q/R42F/S133A/S66N/T210M/V115G/W38K/Y107V/Y59G/Y89S). In kind it is binding. Conditions: DRB1 *0901.
For the next assay, the target named is HLA-DR DRB5*0101 (DR51) (Homo sapiens, UniProt P01903+Q30154). In kind it is binding. Conditions: DRB5 *0101.
Another assay concerns the target HLA-DR DRB1*0701 (DR7) (Homo sapiens, UniProt P01903+P01911, A100R/A102G/A103Q/D57E/D86V/E43K/F76Y/K127E/L162R/M171V/P40G/Q125H/Q99D/R33Q/R42Y/R54Q/S133A/S66F/T210M/V115G/Y107V/Y59L/Y89S). In kind it is binding. Conditions: DRB1 *0701.
A further assay has as its target HLA-DR DRB4*0101 (DR53) (Homo sapiens, UniProt P01903+P13762, G164S). In kind it is binding. Conditions: DRB4 *0101.
The target in another assay is HLA-DR DRB1*0301 (DR3) (Homo sapiens, UniProt P01903+P01911, A100K/A102G/A103R/A169T/F55Y/I96L/K41T/L162R/M171V/P40S/Q125H/Q178H/Q39Y/R42S/S66N/T106N/T262R/W38E/Y61H). The format is binding.
HLA-DR DRB1*0301 (DR3), sequence (P01903 26-254 limits assumed, other chains not shown): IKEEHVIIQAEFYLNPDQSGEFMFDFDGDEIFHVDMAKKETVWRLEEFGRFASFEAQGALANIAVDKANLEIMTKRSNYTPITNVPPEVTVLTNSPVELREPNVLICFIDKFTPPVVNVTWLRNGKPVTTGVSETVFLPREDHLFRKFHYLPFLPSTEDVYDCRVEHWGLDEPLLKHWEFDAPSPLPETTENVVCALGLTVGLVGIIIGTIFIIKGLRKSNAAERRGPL
For a further assay, the target named is HLA-DR DRB3*0101 (DR52) (Homo sapiens, UniProt P01903+P79483). In kind it is binding.
The next assay deals with HLA-DR DRB1*0405 (DR4) (Homo sapiens, UniProt P01903+P01911, A100R/A169T/D86S/F76Y/I96L/K127E/L162R/M171V/N62H/P40V/Q125Y/R42H/S133A/S149N/S66Y/V115G/V209L/W38E). The format is binding. Conditions: DRB1 *0405.
The target in a further assay is HLA-DR DRB1*0802 (DR8) (Homo sapiens, UniProt P01903+P01911, A100R/A103L/A169T/F76Y/H45Y/I96F/K41T/L162R/M171V/P40S/Q125H/Q178H/Q39Y/Q99D/R218S/R42G/S66Y/V115G/W38E). The format is binding.
In a further assay the target is HLA-DR DRB1*1302 (DR13) (Homo sapiens, UniProt P01903+P01911, A100E/A169T/K41T/L162R/M171V/P40S/Q125H/Q178H/Q39Y/Q99D/R42S/S66N/T262R/V115G/W38E/Y61H). In kind it is binding. Conditions: DRBI *1302.
HLA-DR DRB1*1302 (DR13), sequence (P01903 26-254 limits assumed, other chains not shown): as above
The next assay has as its target HLA-DR DRB1*1101 (DR11) (Homo sapiens, UniProt P01903+P01911, A100R/A169T/A87E/I96F/K41T/L162R/M171V/P40S/Q125H/Q178H/Q39Y/Q99D/R42S/S66Y/T262R/V115G/W38E). In kind it is binding. Conditions: DRB1 *1101.
A further assay deals with HLA-DR DRB1*1501 (DR15) (Homo sapiens, UniProt P01903+P01911). In kind it is binding. Conditions: DRBI *1501.
In another assay the target is HLA-DR DRB1*0101 (DR1) (Homo sapiens, UniProt P01903+P01911, A100R/D57E/F55L/F60I/F76Y/I96L/L162R/M171V/P40L/Q125E/R42F/V115G/Y59C). The format is binding. Conditions: DRB1 *0101.
The target in a further assay is HLA-DR DRB1*0401 (DR4) (Homo sapiens, UniProt P01903+P01911, A100K/A169T/F76Y/I96L/K127E/L162R/M171V/N62H/P40V/Q125Y/R42H/S133A/S149N/S66Y/V115G/V209L/W38E). The format is binding. Conditions: DRB1 *0401.
For a further assay, the target named is HLA-B*4002 (Homo sapiens, UniProt P01889, A65T/A93T/A95T/D138N/D201E/D98Y/E176V/E204Q/E69K/K202T/N87E/Q56L/Q94N/R180L/S48T/Y33H/Y91S). In kind it is binding. Conditions: B*4002.
In a further assay the target is HLA-B*4501 (Homo sapiens, UniProt P01889, A329T/A65T/A93T/A95T/C349S/D138N/D201E/D98Y/E176V/E187L/E204Q/E69K/H137Y/K202T/L119W/N87E/Q56L/Q94N/R155S/R180D/S121R/S35A/S48T/V127L/V306I/V36M/W191S/Y140L/Y33H/Y91S). The format is binding. Conditions: B*4501.

HLA-DR DRB1*1101 (DR11), sequence (P01903 26-254 limits assumed, other chains not shown): as above

On to SEAAYAKKI, for which the IC50 on HLA-B*4402 stood at 1680 nM; at HLA-B*4403 it was 61 nM; at HLA-B*4001, 308 nM; against H-2Kk it was 3.9 nM; against HLA-B*1801 it was 8610 nM.

As for YENDIEKKI, the IC50 was determined as 1730 nM against HLA-B*4402, 371 nM at HLA-B*4403, 3.8 nM at H-2Kk and 31000 nM on HLA-B*1801.

Turning to IDVWLGGLAENFLPY, the values for the IC50 in [1], in assay [2] and in [3] were 138 nM, 13 nM and 204 nM, respectively.

MSYNLLGFLQRSSNT: the IC50 is 8970 nM on HLA-DR DRB1*0901 (DR9); 9 nM at HLA-DR DRB5*0101 (DR51); 8870 nM on HLA-DR DRB1*0701 (DR7); 4660 nM against HLA-DR DRB4*0101 (DR53); 108000 nM against HLA-DR DRB1*0301 (DR3); 51800 nM at HLA-DR DRB3*0101 (DR52). In addition, the concentration for half-maximal inhibition (IC50) in assay [1] is above 51200 nM; on HLA-DR DRB1*0405 (DR4), 433 nM; against HLA-DR DRB1*0802 (DR8) it was 900 nM; at HLA-DR DRB1*1302 (DR13) it was 1330 nM; on HLA-DR DRB1*1101 (DR11), 3070 nM; against HLA-DR DRB1*1501 (DR15), 6.8 nM.

As for WKRMEVGQQAVEVWQ, the IC50 is 14700 nM against HLA-DR DRB1*0901 (DR9); 4300 nM on HLA-DR DRB5*0101 (DR51); 62 nM at HLA-DR DRB1*0101 (DR1); 46100 nM at HLA-DR DRB1*0701 (DR7); 24 nM on HLA-DR DRB1*0401 (DR4); above 42200 nM at HLA-DR DRB3*0101 (DR52). Moreover, the IC50 in [1] turned out to be 12100 nM; at HLA-DR DRB1*0405 (DR4) it was 94 nM; on HLA-DR DRB1*1302 (DR13), 159 nM; in assay [2] it was 159 nM; against HLA-DR DRB1*1101 (DR11) it was 512 nM; in assay [3], 13700 nM.

Consider HETTYNSI, for which the IC50 on HLA-B*4402 came out at 616 nM; against H-2Kk it was 1.8 nM; on HLA-B*4002, 336 nM; against HLA-B*1801 it was 1640 nM; against HLA-B*4501, 6610 nM.

Regarding IDVWLGGLAKNFLPY, the IC50 in assay [2] was above 4170 nM.

Consider ISLLLIQSWLEPVQF, for which the half-inhibitory concentration (IC50) is above 9960 nM at HLA-DR DRB5*0101 (DR51); 184 nM against HLA-DR DRB1*0101 (DR1); 83 nM on HLA-DR DRB1*0701 (DR7); 2.5 nM against HLA-DR DRB4*0101 (DR53); 885 nM against HLA-DR DRB1*0401 (DR4); 27900 nM on HLA-DR DRB1*0301 (DR3). Besides, the half-maximal inhibitory concentration (IC50) is 6760 nM against HLA-DR DRB3*0101 (DR52); 562 nM in [1]; 0.86 nM against HLA-DR DRB1*0405 (DR4); above 33300 nM against HLA-DR DRB1*0802 (DR8); 120 nM against HLA-DR DRB1*1302 (DR13); 5230 nM in assay [2]. Further, the IC50 against HLA-DR DRB1*1101 (DR11) was 2680 nM; in assay [3] it was above 89300 nM; against HLA-DR DRB1*1501 (DR15) it was 60 nM.
